Measured values taken from patent US8476255B2, “Histone deacetylase inhibitors” (Orchid Chemicals & Pharmaceuticals Limited, priority 2007, dated 2013).
pIC50: −log10 of the molar value.

Experiments:
NCIH460 (lung) cells = assay: Anti-cancer screen (MTT), NCIH460; type: cell-based; conditions: Homo sapiens, NCI-H460, NCIH460, 48 hours, MTT
Summary of the method: (§1)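 Cells in DMEM with 10% FBS were seeded for 24 h, then exposed for 48 h to compounds at 0.01, 0.1, 1, 10 and 100 μM final, in triplicate. Viability was read by MTT (3 h, A570 after DMSO solubilisation), referenced to a pre-dosing T0 plate, with SAHA as standard.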

p21 = p21 induction, sandwich ELISA in HCT116 lysate; type: cell-based; conditions: HCT116, 18 hours
Description: Acetylated histone (H3), acetylated Tubulin and p21 levels were detected in cell lysate by sandwich ELISA method (Cell Signaling Technology, USA, Cat No: 7232, 7204 & 7167 respectively) by following manufacturer's instructions. Briefly, colon cancer cells (HCT116. 10,000/well) were incubated with test compound (1 and 10 μM) or medium (control) for 4 hours at 37° C. in CO2 incubator. The incubation lasted 18 hours for p21 induction. After incubation, cell lysates were prepared in cell lysis buffer by sonication on ice. The lysates were collected after centrifugation and subjected to ELISA test procedure. 100 μL of each diluted cell lysate in dilution buffer (1:1) was added to appropriate capture antibody coated microwells and incubated overnight at 4° C. After washing, 100 μL of detection antibody was added for 1 hour at 37° C. After second washing, 100 μL of HRP-linked secondary antibody was added for 30 min at 37° C. Finally, after appropriate washing, 100 μL of TMB substrate was added for 10 min at 37° C. followed by 100 μL of stop solution. The absorbance of individual wells was read using a spectrophotometer at 450 nm (A450).

recombinant HDAC1 enzyme = recombinant HDAC1 enzyme (Homo sapiens (Human), UniProt Q13547); assay: HDAC1 inhibitory activity (isoform selectivity); type: biochemical; conditions: read-out: HDAC1 inhibition (IC50)
recombinant HDAC1 enzyme, sequence (Q13547 whole entry, canonical isoform): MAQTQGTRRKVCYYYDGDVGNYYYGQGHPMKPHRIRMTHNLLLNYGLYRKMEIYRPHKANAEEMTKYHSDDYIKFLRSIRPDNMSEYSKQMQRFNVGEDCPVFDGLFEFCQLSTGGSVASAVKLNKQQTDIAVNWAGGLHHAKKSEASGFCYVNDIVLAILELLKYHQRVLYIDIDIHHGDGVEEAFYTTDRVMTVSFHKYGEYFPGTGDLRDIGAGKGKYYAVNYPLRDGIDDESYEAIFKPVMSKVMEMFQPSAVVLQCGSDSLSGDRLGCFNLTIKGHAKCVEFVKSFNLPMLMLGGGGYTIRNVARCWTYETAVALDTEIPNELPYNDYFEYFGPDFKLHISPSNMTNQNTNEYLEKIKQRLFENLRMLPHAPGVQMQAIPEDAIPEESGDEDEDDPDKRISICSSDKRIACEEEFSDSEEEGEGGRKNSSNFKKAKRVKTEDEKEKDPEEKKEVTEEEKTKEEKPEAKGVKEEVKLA
Description: The assay was carried out, as previously described using recombinant HDAC1 enzyme (BIOMOL, USA) and following manufacturer's instructions.

HCT 116 (colon) cells = assay: Anti-cancer screen (MTT), HCT 116; type: cell-based; conditions: Homo sapiens, HCT-116, HCT116, 48 hours, MTT
Summary of the method: as §1

Compound: COc1ccc(/C=C(/C(=O)NCc2ccc(C(=O)Nc3ccccc3N)cc2)c2ccc(F)cc2)cc1OC [Compound 19, N-(2-Aminophenyl)-4-((3-(3,4-dimethoxyphenyl)-2-(4-fluorophenyl)acrylamido)methyl)benzamide]
- GI50 (NCIH460 (lung) cells; read-out: Cell growth inhibition NCIH460 (Lung) GI50): 2.5 µM
- LC50 (NCIH460 (lung) cells; read-out: Cell growth inhibition NCIH460 (Lung) LC50): 70 µM
- IC (TGI) (NCIH460 (lung) cells; read-out: Cell growth inhibition NCIH460 (Lung) TGI): 8 µM
- P21 induction (Fold increase) (p21; 1 μM): 1.6 Fold increase
- P21 induction (Fold increase) (p21; 10 μM): 2.4 Fold increase
- pIC50 (recombinant HDAC1 enzyme): 7.38
- GI50 (HCT 116 (colon) cells; read-out: Cell growth inhibition HCT116 (Colon) GI50): 0.3 µM
- CC50 (HCT 116 (colon) cells; read-out: Cell growth inhibition HCT116 (Colon) LC50): 58 µM
- IC (TGI) (HCT 116 (colon) cells; read-out: Cell growth inhibition HCT116 (Colon) TGI): 5 µM
